Assay results: article PMC12669040, “Tumour-specific STING agonist synthesis via a two-component prodrug system” (Nature Chemistry, 2025)
Several values for one entry are separate records, joined by “and”; a condition that tells them apart may be missing. Equal values may be shown once.

How the values were obtained:
[1] = Colorimetric alkylation rate constant assay with TNB^2− as non-specific thiol; type: physicochemical; design: second-order: unit not given here; conditions: for remaining [B]: in µM
[2] = Colorimetric alkylation rate constant assay with thiol N1; type: physicochemical; conditions: for remaining [A]: N1 from calibration curve (N1 in uM); for remaining [A] / remaining [B]: in µM
[3] = Time 2891 sec, [B]0 = 250, Replicates 1-3
[4] = Time 3071 sec, [B]0 = 250, Replicates 1-3
[5] = Time 3252 sec, [B]0 = 250, Replicates 1-3
[6] = Time 3433 sec, [B]0 = 250, Replicates 1-3
[7] = Time 3613 sec, [B]0 = 250, Replicates 1-3

In the case of COc1cc2sc(C(=O)CCC(=O)O)cc2cc1NC(=O)CCl [Compound E2], the “remaining [B]” value ([1]; Replicate 1, 723 sec, [B]0 = 250) is reported as 243.335, the “remaining [B]” value ([1]; Replicate 1, 903 sec, [B]0 = 250) is reported as 243.032 and the “remaining [B]” value ([1]; Replicate 1, 1084 sec, [B]0 = 250) is reported as 242.818. The “remaining [B]” value ([1]; Replicate 1, 1265 sec, [B]0 = 250) was 242.415, the “remaining [B]” value ([1]; Replicate 1, 1445 sec, [B]0 = 250) was 242.176 and the “remaining [B]” value ([1]; Replicate 1, 1626 sec, [B]0 = 250) was 241.949. For the same molecule, the “remaining [B]” value ([1]; Replicate 1, 1806 sec, [B]0 = 250) was 241.659, the “remaining [B]” value ([1]; Replicate 1, 1988 sec, [B]0 = 250) was 241.394 and the “remaining [B]” value ([1]; Replicate 1, 2168 sec, [B]0 = 250) was 241.004. For the same molecule, the “remaining [B]” value ([1]; Replicate 1, 2349 sec, [B]0 = 250) was 240.752, the “remaining [B]” value ([1]; Replicate 1, 2530 sec, [B]0 = 250) was 240.437 and the “remaining [B]” value ([1]; Replicate 1, 2710 sec, [B]0 = 250) was 240.323. For the same molecule, the “remaining [B]” value ([1]; Replicate 2, 542 sec, [B]0=250) was 243.63, the “remaining [B]” value ([1]; Replicate 2, 723 sec, [B]0=250) was 243.24 and the “remaining [B]” value ([1]; Replicate 2, 903 sec, [B]0=250) was 242.962. For the same molecule, the “remaining [B]” value ([1]; Replicate 2, 1084 sec, [B]0=250) was 242.698, the “remaining [B]” value ([1]; Replicate 2, 1265 sec, [B]0=250) was 242.446 and the “remaining [B]” value ([1]; Replicate 2, 1445 sec, [B]0=250) was 242.169. For the same molecule, the “remaining [B]” value ([1]; Replicate 2, 1626 sec, [B]0=250) was 241.929, the “remaining [B]” value ([1]; Replicate 2, 1806 sec, [B]0=250) was 241.639 and the “remaining [B]” value ([1]; Replicate 2, 1988 sec, [B]0=250) was 241.4. For the same molecule, the “remaining [B]” value ([1]; Replicate 2, 2168 sec, [B]0=250) was 241.098, the “remaining [B]” value ([1]; Replicate 2, 2349 sec, [B]0=250) was 240.858 and the “remaining [B]” value ([1]; Replicate 2, 2530 sec, [B]0=250) was 240.593. For the same molecule, the “remaining [B]” value ([1]; Replicate 2, 2710 sec, [B]0=250) was 240.316, the “remaining [B]” value ([1]; Replicate 3, 723 sec, [B]0=250) was 242.314 and the “remaining [B]” value ([1]; Replicate 3, 903 sec, [B]0=250) was 241.999. The “remaining [B]” value ([1]; Replicate 3, 1084 sec, [B]0=250) was 241.659, the “remaining [B]” value ([1]; Replicate 3, 1265 sec, [B]0=250) was 241.344 and the “remaining [B]” value ([1]; Replicate 3, 1445 sec, [B]0=250) was 241.041. For the same molecule, the “remaining [B]” value ([1]; Replicate 3, 1626 sec, [B]0=250) was 240.789, the “remaining [B]” value ([1]; Replicate 3, 1806 sec, [B]0=250) was 240.5 and the “remaining [B]” value ([1]; Replicate 3, 1988 sec, [B]0=250) was 240.273. For the same molecule, the “remaining [B]” value ([1]; Replicate 3, 2168 sec, [B]0=250) was 240.008, the “remaining [B]” value ([1]; Replicate 3, 2349 sec, [B]0=250) was 239.706 and the “remaining [B]” value ([1]; Replicate 3, 2530 sec, [B]0=250) was 239.492. The “remaining [B]” value ([1]; Replicate 3, 2710 sec, [B]0=250) was 239.164, the second-order [1, 3] was 0.0004296 and 0.0004811 and 0.0004316 and the “remaining [B]” value [1, 3] was 238.912 and 239.97 and 240.014. The second-order [1, 4] was 0.0004407 and 0.0004923 and 0.0004463, the “remaining [B]” value [1, 4] was 238.673 and 239.655 and 239.774 and the second-order [1, 5] was 0.0004524 and 0.0005067 and 0.0004586. The “remaining [B]” value [1, 5] was 238.37 and 239.391 and 239.522, the second-order [1, 6] was 0.0004672 and 0.0005187 and 0.0004692 and the “remaining [B]” value [1, 6] was 238.118 and 239.164 and 239.207. For the same molecule, the second-order [1, 7] was 0.0004772 and 0.0005343 and 0.0004876, the “remaining [B]” value [1, 7] was 237.79 and the second-order ([1]; Time 3794 sec, [B]0 = 250, Replicates 1-3) was 0.0004927 and 0.000547 and 0.0004971. For the same molecule, the second-order ([1]; Time 3974 sec, [B]0 = 250, Replicates 1-3) was 0.0005034 and 0.0005579 and 0.0005103, the second-order ([1]; Time 4155 sec, [B]0 = 250, Replicates 1-3) was 0.0005154 and 0.0005714 and 0.0005211 and the second-order ([1]; Time 4336 sec, [B]0 = 250, Replicates 1-3) was 0.0005298 and 0.0005836 and 0.0005397. The second-order ([1]; Time 4516 sec, [B]0 = 250, Replicates 1-3) was 0.0005443 and 0.0005965 and 0.0005531, the second-order ([1]; Time 4697 sec, [B]0 = 250, Replicates 1-3) was 0.0005528 and 0.0006095 and 0.0005659 and the second-order ([1]; Time 4878 sec, [B]0 = 250, Replicates 1-3) was 0.0005674 and 0.0006188 and 0.0005756. The second-order ([1]; Time 5058 sec, [B]0 = 250, Replicates 1-3) was 0.0005809 and 0.0006349 and 0.000586, the second-order ([1]; Time 5239 sec, [B]0 = 250, Replicates 1-3) was 0.0005944 and 0.0006468 and 0.0006002 and the second-order ([1]; Time 5419 sec, [B]0 = 250, Replicates 1-3) was 0.0006061 and 0.0006606 and 0.0006132. The second-order ([1]; Time 5600 sec, [B]0 = 250, Replicates 1-3) was 0.0006185 and 0.0006707 and 0.0006275, the second-order ([1]; Time 5781 sec, [B]0 = 250, Replicates 1-3) was 0.0006334 and 0.0006852 and 0.0006393 and the second-order ([1]; Time 5961 sec, [B]0 = 250, Replicates 1-3) was 0.0006459 and 0.0007024 and 0.0006549. The “remaining [A]” value ([2]; Replicate 1, time 576 sec) was 17.5091, the “remaining [B]” value ([2]; Replicate 1, time 576 sec, [B]0 = 250) was 163.389 and the second-order ([2]; Replicate 1, time 576 sec, second-order plot value) was 0.009306. For the same molecule, the “remaining [A]” value ([2]; Replicate 1, time 606 sec) was 16.6256, the “remaining [B]” value ([2]; Replicate 1, time 606 sec, [B]0 = 250) was 162.506 and the second-order ([2]; Replicate 1, time 606 sec, second-order plot value) was 0.009623. For the same molecule, the “remaining [A]” value ([2]; Replicate 2, time 576 sec) was 15.4999, the “remaining [B]” value ([2]; Replicate 2, time 576 sec, [B]0=250) was 162.358 and the second-order ([2]; Replicate 2, time 576 sec, second-order plot value) was 0.009966. For the same molecule, the “remaining [A]” value ([2]; Replicate 2, time 606 sec) was 14.5929, the “remaining [B]” value ([2]; Replicate 2, time 606 sec, [B]0=250) was 161.451 and the second-order ([2]; Replicate 2, time 606 sec, second-order plot value) was 0.01034. The “remaining [A]” value ([2]; Replicate 3, time 576 sec) was 17.4849, the “remaining [B]” value ([2]; Replicate 3, time 576 sec, [B]0=250) was 162.938 and the second-order ([2]; Replicate 3, time 576 sec, second-order plot value) was 0.009352. The “remaining [A]” value ([2]; Replicate 3, time 606 sec) was 16.538, the “remaining [B]” value ([2]; Replicate 3, time 606 sec, [B]0=250) was 161.991 and the second-order ([2]; Replicate 3, time 606 sec, second-order plot value) was 0.009694. The “remaining [B]” value ([2]; time 0 sec, [B]0 = 250, replicates 1-3) was 219.942 and 218.28 and 218.112, the second-order ([2]; time 0 sec, replicates 1-3) was 0.001589 and 0.00145 and 0.001561 and the “remaining [B]” value ([2]; time 30 sec, [B]0 = 250, replicates 1-3) was 211.555 and 211.839 and 210.232. For the same molecule, the second-order ([2]; time 30 sec, replicates 1-3) was 0.002137 and 0.002004 and 0.001994, the “remaining [B]” value ([2]; time 60 sec, [B]0 = 250, replicates 1-3) was 204.386 and 206.139 and 202.834 and the second-order ([2]; time 60 sec, replicates 1-3) was 0.002738 and 0.002556 and 0.002427. The “remaining [B]” value ([2]; time 91 sec, [B]0 = 250, replicates 1-3) was 199.029 and 200.952 and 197.251, the second-order ([2]; time 91 sec, replicates 1-3) was 0.003264 and 0.003029 and 0.002869 and the “remaining [B]” value ([2]; time 121 sec, [B]0 = 250, replicates 1-3) was 194.402 and 196.363 and 192.97. The second-order ([2]; time 121 sec, replicates 1-3) was 0.003719 and 0.003488 and 0.003307, the “remaining [B]” value ([2]; time 151 sec, [B]0 = 250, replicates 1-3) was 190.452 and 192.373 and 188.804 and the second-order ([2]; time 151 sec, replicates 1-3) was 0.004215 and 0.003925 and 0.003731. For the same molecule, the “remaining [B]” value ([2]; time 182 sec, [B]0 = 250, replicates 1-3) was 186.908 and 188.84 and 185.431, the second-order ([2]; time 182 sec, replicates 1-3) was 0.004663 and 0.00436 and 0.004145 and the “remaining [B]” value ([2]; time 212 sec, [B]0 = 250, replicates 1-3) was 183.932 and 185.762 and 182.511. For the same molecule, the second-order ([2]; time 212 sec, replicates 1-3) was 0.005091 and 0.004762 and 0.004542, the “remaining [B]” value ([2]; time 242 sec, [B]0 = 250, replicates 1-3) was 181.254 and 182.541 and 179.734 and the second-order ([2]; time 242 sec, replicates 1-3) was 0.005539 and 0.005157 and 0.005. For the same molecule, the “remaining [B]” value ([2]; time 273 sec, [B]0 = 250, replicates 1-3) was 178.711 and 180.147 and 177.239, the second-order ([2]; time 273 sec, replicates 1-3) was 0.005981 and 0.005566 and 0.005372 and the “remaining [B]” value ([2]; time 303 sec, [B]0 = 250, replicates 1-3) was 176.384 and 177.582 and 175.227. The second-order ([2]; time 303 sec, replicates 1-3) was 0.00637 and 0.005975 and 0.005807, the “remaining [B]” value ([2]; time 333 sec, [B]0 = 250, replicates 1-3) was 174.382 and 175.53 and 173.129 and the second-order ([2]; time 333 sec, replicates 1-3) was 0.006811 and 0.006357 and 0.006186. The “remaining [B]” value ([2]; time 364 sec, [B]0 = 250, replicates 1-3) was 172.461 and 173.364 and 171.287, the second-order ([2]; time 364 sec, replicates 1-3) was 0.007233 and 0.006753 and 0.006621 and the “remaining [B]” value ([2]; time 394 sec, [B]0 = 250, replicates 1-3) was 170.756 and 171.54 and 169.7. The second-order ([2]; time 394 sec, replicates 1-3) was 0.007627 and 0.007133 and 0.007019, the “remaining [B]” value ([2]; time 424 sec, [B]0 = 250, replicates 1-3) was 169.187 and 169.802 and 168.141 and the second-order ([2]; time 424 sec, replicates 1-3) was 0.008046 and 0.007509 and 0.00743. The “remaining [B]” value ([2]; time 454 sec, [B]0 = 250, replicates 1-3) was 167.699 and 168.519 and 166.865, the second-order ([2]; time 454 sec, replicates 1-3) was 0.008415 and 0.007894 and 0.007756 and the “remaining [B]” value ([2]; time 485 sec, [B]0 = 250, replicates 1-3) was 166.401 and 167.208 and 165.59. For the same molecule, the second-order ([2]; time 485 sec, replicates 1-3) was 0.008811 and 0.008254 and 0.008111, the “remaining [B]” value ([2]; time 515 sec, [B]0 = 250, replicates 1-3) was 165.237 and 165.84 and 164.371 and the second-order ([2]; time 515 sec, replicates 1-3) was 0.009219 and 0.008598 and 0.00851. The “remaining [B]” value ([2]; time 545 sec, [B]0 = 250, replicates 1-3) was 164.02 and 164.7 and 163.322 and the second-order ([2]; time 545 sec, replicates 1-3) was 0.009596 and 0.008984 and 0.008865.
